# Target: T1, human NK2 receptor (Homo sapiens, UniProt P21452)
# T1 construct: purchased Perkin Elmer biosignal Inc. 6110510
# T1 sequence (P21452 1-398): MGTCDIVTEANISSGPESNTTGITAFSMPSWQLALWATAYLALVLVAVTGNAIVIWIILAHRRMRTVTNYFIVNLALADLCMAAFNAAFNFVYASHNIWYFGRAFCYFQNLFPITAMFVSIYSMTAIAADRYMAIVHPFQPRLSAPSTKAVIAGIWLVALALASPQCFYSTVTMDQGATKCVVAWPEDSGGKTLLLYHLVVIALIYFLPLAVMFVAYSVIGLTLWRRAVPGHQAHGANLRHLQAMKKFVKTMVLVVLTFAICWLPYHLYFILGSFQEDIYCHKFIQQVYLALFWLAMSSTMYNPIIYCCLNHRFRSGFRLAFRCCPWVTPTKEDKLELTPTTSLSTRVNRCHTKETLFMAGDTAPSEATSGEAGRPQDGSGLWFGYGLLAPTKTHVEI
# Experiment: [3H]SR48968 competition binding assay
# Details: [3H]SR48968 displacement, membranes of CHO cells stably expressing recombinant human NK2 receptor; Ki from IC50 by Cheng-Prussoff
# In short: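 Membranes from CHO cells stably expressing recombinant human NK2 were incubated 75 min at RT with [3H]SR48968 at its KD and 10 compound concentrations (0.0003–10 μM) in Tris-HCl pH 7.4, MnCl2, chymostatin, BSA. Filter-bound radioactivity was counted; Hill-fitted IC50 converted to Ki via Cheng-Prusoff.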
row,SMILES,Ki [nM]
1,"CN(C(=O)c1ccc(C(F)(F)F)nc1)[C@@H]1CN(C(=O)c2ccc(C#N)cc2)C[C@H]1c1ccc(Cl)c(Cl)c1 (racemic) [Example 81, rac-N-[(3S,4R)-1-(4-Cyano-benzoyl)-4-(3,4-dichloro-phenyl)-pyrrolidin-3-yl]-N-methyl-6-trifluoromethyl-nicotinamide]",5.8
2,"CN(C(=O)c1ccc(OCC(F)(F)F)nc1)[C@@H]1CN(C(=O)c2ccc(C#N)cc2)C[C@H]1c1ccc(Cl)c(Cl)c1 (racemic) [Example 82, rac-N-[(3S,4R)-1-(4-Cyano-benzoyl)-4-(3,4-dichloro-phenyl)-pyrrolidin-3-yl]-N-methyl-6-(2,2,2-trifluoro-ethoxy)-nicotinamide]",11.7
3,"Cc1cncc(C(=O)N(C)[C@@H]2CN(C(=O)c3ccc(C#N)cc3)C[C@H]2c2ccc(Cl)c(Cl)c2)c1 (racemic) [Example 83, rac-N-[(3S,4R)-1-(4-Cyano-benzoyl)-4-(3,4-dichloro-phenyl)-pyrrolidin-3-yl]-5,N-dimethyl-nicotinamide]",97.1
4,"CN(C(=O)c1ccc(F)nc1)[C@@H]1CN(C(=O)c2ccc(C#N)cc2)C[C@H]1c1ccc(Cl)c(Cl)c1 (racemic) [Example 85, rac-N-[(3S,4R)-1-(4-Cyano-benzoyl)-4-(3,4-dichloro-phenyl)-pyrrolidin-3-yl]-6-fluoro-N-methyl-nicotinamide]",82.1
5,"COc1ccc(C(=O)N(C)[C@@H]2CN(C(=O)c3ccc(C#N)cc3)C[C@H]2c2ccc(Cl)c(Cl)c2)cn1 (racemic) [Example 86, rac-N-[(3S,4R)-1-(4-Cyano-benzoyl)-4-(3,4-dichloro-phenyl)-pyrrolidin-3-yl]-6-methoxy-N-methyl-nicotinamide]",17.8
6,"COc1ccc(C(=O)N(C)[C@H]2CN(C(=O)C3CCN(C(=O)C4(C)CC4)CC3)C[C@@H]2c2ccc(Cl)cc2)cc1C(F)(F)F (racemic) [Example 87, N-{(3RS,4SR)-4-(4-Chloro-phenyl)-1-[1-(1-methyl-cyclopropanecarbonyl)-piperidine-4-carbonyl]-pyrrolidin-3-yl}-4-methoxy-N-methyl-3-trifluoromethyl-benzamide]",0.8
7,"COc1ccc(C(=O)N(C)[C@H]2CN(C(=O)c3ccc(F)cc3)C[C@@H]2c2ccc(Cl)cc2)cc1C(F)(F)F (racemic) [Example 88, N-[(3RS,4SR)-4-(4-Chloro-phenyl)-1-(4-fluoro-benzoyl)-pyrrolidin-3-yl]-4-methoxy-N-methyl-3-trifluoromethyl-benzamide]",17.8
8,"COc1ccc(C(=O)N(C)[C@H]2CN(C(=O)c3ccc(F)cc3C)C[C@@H]2c2ccc(Cl)cc2)cc1C(F)(F)F (racemic) [Example 89, N-[(3RS,4SR)-4-(4-Chloro-phenyl)-1-(4-fluoro-2-methyl-benzoyl)-pyrrolidin-3-yl]-4-methoxy-N-methyl-3-trifluoromethyl-benzamide]",23.3
9,"COc1ccc(C(=O)N(C)[C@H]2CN(C(=O)c3ccc(C#N)nc3)C[C@@H]2c2ccc(Cl)cc2)cc1C(F)(F)F (racemic) [Example 90, N-[(3RS,4SR)-4-(4-Chloro-phenyl)-1-(6-cyano-pyridine-3-carbonyl)-pyrrolidin-3-yl]-4-methoxy-N-methyl-3-trifluoromethyl-benzamide]",11.7
10,"COc1ccc(C(=O)N(C)[C@H]2CN(C(=O)c3ccc(C#N)cc3)C[C@@H]2c2ccc(Cl)cc2)cc1C(F)(F)F (racemic) [Example 92, N-[(3RS,4SR)-4-(4-Chloro-phenyl)-1-(4-cyano-benzoyl)-pyrrolidin-3-yl]-4-methoxy-N-methyl-3-trifluoromethyl-benzamide]",13.9
11,"COc1ccc(C(=O)N(C)[C@H]2CN(C(=O)C3CCN(C(=O)OC(C)(C)C)CC3)C[C@@H]2c2ccc(Cl)cc2)cc1C(F)(F)F (racemic) [Example 95, 4-{(3SR,4RS)-3-(4-Chloro-phenyl)-4-[(4-methoxy-3-trifluoromethyl-benzoyl)-methyl-amino]-pyrrolidine-1-carbonyl}-piperidine-1-carboxylic acid tert-butyl ester]",2.2
12,"COc1ccc(C(=O)N(C)[C@H]2CN(C(=O)C3CCN(C(=O)C4(C)CC4)CC3)C[C@@H]2c2ccc(Cl)c(Cl)c2)cc1C(F)(F)F (racemic) [Example 96, N-{(3RS,4SR)-4-(3,4-Dichloro-phenyl)-1-[1-(1-methyl-cyclopropanecarbonyl)-piperidine-4-carbonyl]-pyrrolidin-3-yl}-4-methoxy-N-methyl-3-trifluoromethyl-benzamide]",0.8
13,"CN(C(=O)c1ccc(Cl)c(C(F)(F)F)c1)[C@H]1CN(C(=O)C2CCN(C(=O)C3(C)CC3)CC2)C[C@@H]1c1ccc(Cl)c(Cl)c1 (racemic) [Example 97, 4-Chloro-N-{(3RS,4SR)-4-(3,4-dichloro-phenyl)-1-[1-(1-methyl-cyclopropanecarbonyl)-piperidine-4-carbonyl]-pyrrolidin-3-yl}-N-methyl-3-trifluoromethyl-benzamide]",0.7
14,"CN(C(=O)c1ccc(F)c(OC(F)(F)F)c1)[C@H]1CN(C(=O)C2CCN(C(=O)C3(C)CC3)CC2)C[C@@H]1c1ccc(Cl)c(Cl)c1 (racemic) [Example 98, N-{(3RS,4SR)-4-(3,4-Dichloro-phenyl)-1-[1-(1-methyl-cyclopropanecarbonyl)-piperidine-4-carbonyl]-pyrrolidin-3-yl}-4-fluoro-N-methyl-3-trifluoromethoxy-benzamide]",0.9
15,"COc1cc(C(=O)N(C)[C@H]2CN(C(=O)C3CCN(C(=O)C4(C)CC4)CC3)C[C@@H]2c2ccc(Cl)c(Cl)c2)ccc1Cl (racemic) [Example 99, 4-Chloro-N-{(3RS,4SR)-4-(3,4-dichloro-phenyl)-1-[1-(1-methyl-cyclopropanecarbonyl)-piperidine-4-carbonyl]-pyrrolidin-3-yl}-3-methoxy-N-methyl-benzamide]",0.9
16,"CN(C(=O)c1ccc(F)cc1)[C@H]1CN(C(=O)C2CCN(C(=O)C3(C)CC3)CC2)C[C@@H]1c1ccc(Cl)c(Cl)c1 (racemic) [Example 100, N-{(3RS,4SR)-4-(3,4-Dichloro-phenyl)-1-[1-(1-methyl-cyclopropanecarbonyl)-piperidine-4-carbonyl]-pyrrolidin-3-yl}-4-fluoro-N-methyl-benzamide]",2.3
17,"CN(C(=O)Cc1ccc(F)cc1)[C@H]1CN(C(=O)C2CCN(C(=O)C3(C)CC3)CC2)C[C@@H]1c1ccc(Cl)c(Cl)c1 (racemic) [Example 101, N-{(3RS,4SR)-4-(3,4-Dichloro-phenyl)-1-[1-(1-methyl-cyclopropanecarbonyl)-piperidine-4-carbonyl]-pyrrolidin-3-yl}-2-(4-fluoro-phenyl)-N-methyl-acetamide]",16.2
18,"CN(C(=O)CCc1ccc(F)cc1)[C@H]1CN(C(=O)C2CCN(C(=O)C3(C)CC3)CC2)C[C@@H]1c1ccc(Cl)c(Cl)c1 (racemic) [Example 102, N-{(3RS,4SR)-4-(3,4-Dichloro-phenyl)-1-[1-(1-methyl-cyclopropanecarbonyl)-piperidine-4-carbonyl]-pyrrolidin-3-yl}-3-(4-fluoro-phenyl)-N-methyl-propionamide]",2.4
19,"COc1ccc(C(=O)N(C)[C@H]2CN(C(=O)C3CCNCC3)C[C@@H]2c2ccc(Cl)cc2)cc1C(F)(F)F (racemic) [Example 103, N-[(3RS,4SR)-4-(4-Chloro-phenyl)-1-(piperidine-4-carbonyl)-pyrrolidin-3-yl]-4-methoxy-N-methyl-3-trifluoromethyl-benzamide]",7
